Measurements published in PubChem BioAssay AID248 (DTP/NCI, 2004).
Values joined by “and” are separate entries in the source; they are usually repeats but may differ in a detail not shown here. Identical values can stand only once. Toxic doses and inconclusive results are not listed. No stated cut-off is given here; in the data, active means T/C of 150% or more; inactive means T/C below 125%.

System: L1210 leukemia ip in BDF1 mice, survival T/C
Experiment: NCI In Vivo Anticancer Drug Screen. Data for tumor model L1210 Leukemia (intraperitoneal) in B6D2F1 (BDF1) mice
Conditions: endpoint: mean survival time, higher = longer survival
Summary of the method: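 Value reflects the ratio of survival in compound-treated mice to survival in vehicle-treated controls, with both groups carrying the same transplanted tumor.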

[1] = dose: 100.0 mg/kg/injection, schedule: Q04DX003 (ip), vehicle: saline with Tween-80
[2] = dose: 200.0 mg/kg/injection, schedule: Q04DX003 (ip), vehicle: saline with Tween-80
[3] = dose: 400.0 mg/kg/injection, schedule: Q04DX003 (ip), vehicle: saline with Tween-80
[4] = dose: 25.0 mg/kg/injection, schedule: Q01DX009 (ip), vehicle: Klucel (hydroxypropylcellulose) (HPC)
[5] = dose: 50.0 mg/kg/injection, schedule: Q01DX009 (ip), vehicle: Klucel (hydroxypropylcellulose) (HPC)
[6] = dose: 100.0 mg/kg/injection, schedule: Q04DX002 (ip), vehicle: Klucel (hydroxypropylcellulose) (HPC)
[7] = dose: 100.0 mg/kg/injection, schedule: Q01DX009 (ip), vehicle: Klucel (hydroxypropylcellulose) (HPC)
[8] = dose: 200.0 mg/kg/injection, schedule: Q01DX009 (ip), vehicle: Klucel (hydroxypropylcellulose) (HPC)
[9] = dose: 400.0 mg/kg/injection, schedule: Q01DX009 (ip), vehicle: Klucel (hydroxypropylcellulose) (HPC)
[10] = dose: 100.0 mg/kg/injection, schedule: Q01DX001 (ip), vehicle: other
[11] = dose: 200.0 mg/kg/injection, schedule: Q01DX001 (ip), vehicle: other

Measured: T/C

OCCC#CCCCO
inactive: dose: 100.0 mg/kg/injection, schedule: Q01DX009 (ip), vehicle: saline 93 % of control | dose: 200.0 mg/kg/injection, schedule: Q01DX009 (ip), vehicle: saline 92 % of control | dose: 400.0 mg/kg/injection, schedule: Q01DX009 (ip), vehicle: saline 88 % of control

CC(C)(c1ccsc1)c1sccc1C(=O)O
inactive: [1] 100 % of control | [2] 87 % of control | [3] 87 % of control

O=c1oc2c([N+](=O)[O-])cc([N+](=O)[O-])cc2c2ccccc12
inactive: dose: 50.0 mg/kg/injection, schedule: Q01DX001 (ip), vehicle: carboxymethylcellulose (CMC) 105 % of control | dose: 100.0 mg/kg/injection, schedule: Q01DX001 (ip), vehicle: carboxymethylcellulose (CMC) 94 % of control | dose: 200.0 mg/kg/injection, schedule: Q01DX001 (ip), vehicle: carboxymethylcellulose (CMC) 100 % of control | dose: 400.0 mg/kg/injection, schedule: Q01DX001 (ip), vehicle: carboxymethylcellulose (CMC) 92 % of control

CCCCCCCN1CCC(C(=O)CC)(c2cccc(O)c2)CC1
inactive: dose: 12.5 mg/kg/injection, schedule: Q01DX009 (ip), vehicle: Klucel (hydroxypropylcellulose) (HPC) 106 % of control | [4] 98 % of control | [5] 93 % of control and 87 % of control | [6] 93 % of control

CSc1cccc(N2C(=O)CC(Sc3ccccc3N)C2=O)c1 (configuration not stated)
inactive: [7] 90 % of control | [8] 95 % of control | [9] 98 % of control

O=C1C(Cl)=C(c2ccccc2)C(=O)C(Cl)=C1c1ccccc1
inactive: [10] 93 % of control | [11] 88 % of control

COP1(=O)OCC(C)O1 (configuration not stated)
inactive: dose: 100.0 mg/kg/injection, schedule: Q01DX001 (ip), vehicle: saline 113 % of control | dose: 200.0 mg/kg/injection, schedule: Q01DX001 (ip), vehicle: saline 102 % of control | dose: 400.0 mg/kg/injection, schedule: Q01DX001 (ip), vehicle: saline 94 % of control

c1ccc2c3c(sc2c1)CNCC3
inactive: [4] 107 % of control | [5] 101 % of control

CCOC(=O)/C(O)=C(\C=N\C(N)=O)C(=O)OCC
inactive: dose: 100.0 mg/kg/injection, schedule: Q04DX003 (ip), vehicle: saline sonified 93 % of control | dose: 200.0 mg/kg/injection, schedule: Q04DX003 (ip), vehicle: saline sonified 103 % of control | dose: 400.0 mg/kg/injection, schedule: Q04DX003 (ip), vehicle: saline sonified 95 % of control

O=C(O)Cc1ccc(Cl)c2ccccc12
inactive: [6] 101 % of control | dose: 200.0 mg/kg/injection, schedule: Q04DX002 (ip), vehicle: Klucel (hydroxypropylcellulose) (HPC) 104 % of control | dose: 400.0 mg/kg/injection, schedule: Q04DX002 (ip), vehicle: Klucel (hydroxypropylcellulose) (HPC) 107 % of control

C(=C/c1ccc(/C=C/c2ccccc2)cc1)/c1ccccc1
inactive: [7] 98 % of control | dose: 100.0 mg/kg/injection, schedule: Q04DX003 (ip), vehicle: Klucel (hydroxypropylcellulose) (HPC) 98 % of control | [8] 93 % of control | dose: 200.0 mg/kg/injection, schedule: Q04DX003 (ip), vehicle: Klucel (hydroxypropylcellulose) (HPC) 104 % of control | [9] 95 % of control | dose: 400.0 mg/kg/injection, schedule: Q04DX003 (ip), vehicle: Klucel (hydroxypropylcellulose) (HPC) 90 % of control

CC(C)N1CCc2cc3c(cc2C1)OCO3
inactive: dose: 5.0 mg/kg/injection, schedule: Q01DX001 (ip), vehicle: saline 101 % of control | dose: 10.0 mg/kg/injection, schedule: Q01DX001 (ip), vehicle: saline 101 % of control | dose: 20.0 mg/kg/injection, schedule: Q01DX001 (ip), vehicle: saline 110 % of control | dose: 40.0 mg/kg/injection, schedule: Q01DX001 (ip), vehicle: saline 104 % of control | dose: 80.0 mg/kg/injection, schedule: Q01DX001 (ip), vehicle: saline 101 % of control

Cc1nnc(NC(=O)C(Cl)Cl)s1
inactive: [10] 96 % of control | [7] 96 % of control | dose: 100.0 mg/kg/injection, schedule: Q04DX003 (ip), vehicle: other 95 % of control | [11] 98 % of control | [8] 90 % of control | dose: 200.0 mg/kg/injection, schedule: Q04DX003 (ip), vehicle: other 96 % of control | dose: 400.0 mg/kg/injection, schedule: Q01DX001 (ip), vehicle: other 101 % of control | [9] 93 % of control | dose: 400.0 mg/kg/injection, schedule: Q04DX003 (ip), vehicle: other 87 % of control

Cc1ccc(C2NC(=O)N3C(c4ccc(C)cc4)NC(=O)N23)cc1 (configuration not stated)
inactive: dose: 100.0 mg/kg/injection, schedule: Q01DX009 (ip), vehicle: gum acacia 99 % of control | dose: 100.0 mg/kg/injection, schedule: Q04DX003 (ip), vehicle: gum acacia 99 % of control | dose: 200.0 mg/kg/injection, schedule: Q01DX009 (ip), vehicle: gum acacia 102 % of control | dose: 200.0 mg/kg/injection, schedule: Q04DX003 (ip), vehicle: gum acacia 87 % of control | dose: 400.0 mg/kg/injection, schedule: Q01DX009 (ip), vehicle: gum acacia 96 % of control | dose: 400.0 mg/kg/injection, schedule: Q04DX003 (ip), vehicle: gum acacia 92 % of control

CC12CCC(CC1C(=O)O)C2 (configuration not stated)
inactive: [1] 96 % of control | [2] 94 % of control | [3] 98 % of control

N=C(N)COc1ccccc1
inactive: dose: 100.0 mg/kg/injection, schedule: Q01DX001 (ip), vehicle: saline sonified 101 % of control | dose: 200.0 mg/kg/injection, schedule: Q01DX001 (ip), vehicle: saline sonified 97 % of control | dose: 400.0 mg/kg/injection, schedule: Q01DX001 (ip), vehicle: saline sonified 95 % of control

c1ccc(C2COC3(CCCCC3)O2)cc1 (configuration not stated)
inactive: dose: 222.0 mg/kg/injection, schedule: Q01DX Z (ip), vehicle: methylcellulose (MC) 90 % of control | dose: 333.0 mg/kg/injection, schedule: Q01DX Z (ip), vehicle: methylcellulose (MC) 95 % of control

CN1CCN(C(=O)C2C(c3ccccc3)C2c2ccc(Cl)c(Cl)c2)CC1 (configuration not stated)
inactive: dose: 12.5 mg/kg/injection, schedule: Q04DX002 (ip), vehicle: saline with Tween-80 95 % of control and 98 % of control | dose: 25.0 mg/kg/injection, schedule: Q04DX002 (ip), vehicle: saline with Tween-80 103 % of control | dose: 50.0 mg/kg/injection, schedule: Q04DX002 (ip), vehicle: saline with Tween-80 92 % of control and 88 % of control

CC(C)C1C(=O)N2CCCC2C2(O)OC(C(=O)NCCc3ccccc3)(C(C)C)C(=O)N12 (configuration not stated)
inactive: dose: 25.0 mg/kg/injection, schedule: Q04DX003 (ip), vehicle: alcohol 98 % of control | dose: 50.0 mg/kg/injection, schedule: Q04DX003 (ip), vehicle: alcohol 105 % of control and 100 % of control | dose: 100.0 mg/kg/injection, schedule: Q04DX003 (ip), vehicle: alcohol 100 % of control and 104 % of control | dose: 200.0 mg/kg/injection, schedule: Q04DX003 (ip), vehicle: alcohol 100 % of control and 102 % of control | dose: 400.0 mg/kg/injection, schedule: Q04DX003 (ip), vehicle: alcohol 93 % of control
